Patent US10420761B2, “Allosteric inhibitors of thymidylate synthase” (UNIVERSITY OF FLORIDA RESEARCH FOUNDATION, INCORPORATED, priority 2013, dated 2019)
Where two headings read alike, the source gives them in different places.

Legend:
[1] = system: mouse histiocytic sarcoma cell line 5278mHS (p16 deletion, activated hTS); test: MTS cell viability assay, mouse histiocytic sarcoma; type: cell-based
Experimental: (§1) We also tested the compounds S, U and P in mouse histiocytic sarcoma cell line that was derived from genetically engineered mouse model with p16 deletion and activated hTS overexpression. […] Dose-response curves and GI50 values for all compounds tested can be found in Table 3 and FIGS. 8-13.
(§2) 27 top scoring compounds that were identified by in silico screening were tested in human cancer cell lines. Cancer cell lines used for inhibitor testing were maintained under 70% confluency in appropriate cell culture medium (typically DMEM, supplemented with 10% FBS, and 1% pen-strep). Small molecule compounds were obtained from NCI DTP, resuspended in DMSO to generate 50 mM stocks and stored in the dark. In all experiments, fresh compound preparations were used whenever possible and no more than 2 freeze-thaw cycles were allowed for all drug tested. Cells were seeded in 96-well plates in quadruplicates (4 wells/condition) at 4000 cells/well. Compound solutions were freshly prepared in the appropriate cell culture medium and were added the following morning to the cells. After 72-hour incubation with the compound, cell proliferation was measured by MTS assays (Promega) and compared to that of the untreated cells or control drug, such as 5-FU or pemetrexed. Dose-response parameters were determined by plotting percent cell proliferation after treatment from at least eight different compound concentrations and by using non-linear regression fit (4-parameter dose-response) in Sigmaplot. All results shown are representative of at least 3 independent experiments.

in vivo = test: in vivo
Experimental: (§3) SCID immunodeficient mice were i.p. injected daily for 3 weeks and kept under observation for one additional week. Animals' weights were measured daily and the data is presented as the percentage of weight change from day 1 of treatment to day 28 at the termination of the experiment (Table 4). FVB.129 immunocompetent mice were i.p. injected daily for 2 weeks and kept under observation for one additional week. Animals' weights were measure daily and the data is presented as the percentage of weight change from day 1 of treatment to day 21 at the termination of the experiment (Table 5).
as §3, with “The SCID immunodeficient” for “SCID immunodeficient”, “the data are presented as” for “the data is presented as”, “(Table 4). […] The FVB.129 immunocompetent” for “(Table 4). FVB.129 immunocompetent”, “weights were measured daily and” for “weights were measure daily and”

[2] = system: pancreatic neuroendocrine cell line Bon1; test: MTS cell viability assay, Bon-1; type: cell-based
Experimental: (§4) Antiproliferative effects of 27 novel TS inhibitors were tested by MTS assay (Promega) in human cancer cell lines representing several major tumor types known to overexpress TS including lung, cervical, pancreatic and hematopoietic tumors. Six compounds (S, U, P, M, G and J) reduced cell viability by more than 40% in both human cervical cancer HeLa (FIG. 6) and myelogenous leukemia K562 cell lines (FIG. 7).
(§5) Complete dose response relationships for five most promising compounds (P, U, S, M and G) have been established in pancreatic neuroendocrine cancer, pancreatic ductal cancer and small cell lung cancer cell lines (Table 3). […] In pancreatic neuroendocrine tumors Bon1 and CM—the range was larger with GI50 values within 0.1-100 μM (FIGS. 10, 11). Such discrepancy in response to drugs between Bon1 and CM cells can be explained at least in part by different tumor type of these cells. CM cells were derived from insulinoma, a typical beta cell tumor that secrets insulin while Bon cells are carcinoid tumors derived from lymph nodes that produce serotonin.
as §2

[3] = system: pancreatic ductal adenocarcinoma cell line Miapaca-2; test: MTS cell viability assay, MiaPaca-2; type: cell-based; conditions: Homo sapiens, MIA PaCa-2, PDAC, 72-hour incubation, unit inferred
Experimental: as §4, §5, §2

[4] = system: small cell lung cancer cell line H1048; test: MTS cell viability assay, H1048; type: cell-based; conditions: Homo sapiens, NCI-H1048
Experimental: as §4, §5, §2

[5] = system: small cell lung cancer cell line H1607; test: MTS cell viability assay, H1607; type: cell-based; conditions: Homo sapiens, SCLC, 72-hour incubation, unit inferred
Experimental: as §4, §5, §2

[6] = system: pancreatic neuroendocrine cell line CM (insulinoma); test: MTS cell viability assay, CM; type: cell-based
Experimental: as §4, §5, §2

[7] = system: pancreatic ductal adenocarcinoma cell line Panc-1; test: MTS cell viability assay, Panc-1; type: cell-based; conditions: Homo sapiens, PDAC, 72-hour incubation, unit inferred
Experimental: as §4, §5, §2

human cancer cell lines = test: MTS cell viability assay, statements over several cell lines; type: cell-based; conditions: for GI50: Homo sapiens
Experimental: as §4, §5, §1, §2

[8] = type: in vivo
Experimental: as §3, with “To establish the maximum tolerated dose (MTD) for most promising new inhibitors, both immunodeficient SCID and immunocompetent FVB.129 mice were treated daily with compound S and methylated version of compound S at 12.5, 50, and 100 MKG (mg/kg) by i.p. injection (Tables 4 and 5). SCID” for “SCID”
The SCID immunodeficient mice were i.p. injected daily for 3 weeks and kept under observation for one additional week. Animals' weights were measured daily and the data are presented as the percentage of weight change from day 1 of treatment to day 28 at the termination of the experiment (Table 4). The MTD for SCID mice for both compounds was 50 MKG. The FVB.129 immunocompetent mice were i.p. injected daily for 2 weeks and kept under observation for one additional week. Animals' weights were measured daily and the data are presented as the percentage of weight change from day 1 of treatment to day 21 at the termination of the experiment (Table 5). […] Thus, we have identified a derivative of compounds S that is less toxic to immunocompetent FVB.129 mice.

[9] = mouse histiocytic sarcoma cell line, range over compounds S, U and P, read-out: GI50 values from
[10] = mouse histiocytic sarcoma, MTS, unit inferred, read-out: GI50 5278mHS
[11] = PNET, 72-hour incubation, MTS, unit inferred, read-out: GI50 Bon-1
[12] = SCLC, 72-hour incubation, MTS, unit inferred, read-out: GI50 H1048
[13] = PNET, 72-hour incubation, MTS, unit inferred, read-out: GI50 CM
[14] = NCI-H1048, range over small cell lung cancer cell lines H1607 and H1048 and the five compounds, read-out: GI50 values in the range
[15] = range over pancreatic ductal adenocarcinoma cell lines Miapaca-2 and Panc-1 and the five compounds, read-out: GI50 values between
[16] = up to, over the tested cell lines

| GI50 [1, 9] [nM] | GI50 [1, 10] [nM] | GI50 [3] [µM] | GI50 [4, 12] [nM] | GI50 [5] [µM] | GI50 [6, 13] [µM] | GI50 [7] [µM] | GI50 (human cancer cell lines; [14]) [µM] | GI50 (human cancer cell lines; [15]) [µM] | SMILES | animal found dead, D2 (in vivo; SCID mice, 100 MKG i.p. daily, single mice) | MTD at 3 weeks (in vivo; SCID, mouse, in vivo, ip, MTD) [mg/kg] | GI50 ([2]; Bon1 cells, read-out: GI50) [µM] | GI50 [2, 11] [µM] | GI50 ([4]; H1048 (SCLC), read-out: GI50) [nM] | GI50 ([6]; CM (insulinoma), read-out: GI50) [µM] | fold lower GI50 than 5-FU (human cancer cell lines; [16]) | fold lower GI50 than pemetrexed (human cancer cell lines; [16]) | animal found dead, D6 ([8]; FVB.129 mice, 50 MKG i.p. daily, single mice) | animal found dead, D5 ([8]; FVB.129 mice, 100 MKG i.p. daily, single mice) | day after treatment at which animals died ([8]; FVB.129, mouse, in vivo, ip, 2 weeks) [days] |
| --- | --- | --- | --- | --- | --- | --- | --- | --- | --- | --- | --- | --- | --- | --- | --- | --- | --- | --- | --- | --- |
| 400 to 20000 | 21000 | 12 | 3100 | 2.5 | 13 | 1.3 | 0.09 to 29 | 0.5 to 24 | CCN(CC)C1=CC(=O)/C(=N/Nc2cc(Br)ccn2)C=C1 [U, (E)-6-(2-(4-bromopyridin-2-yl)hydrazono)-3-(diethylamino)cyclohexa-2,4-dienone] |  |  |  | 2.4 |  |  |  |  |  |  |  |
|  |  | > 200 | 130 | > 200 | 0.087 | > 200 |  |  | Nc1nc2[nH]cc(CCc3ccc(C(=O)N[C@@H](CCC(=O)O)C(=O)O)cc3)c2c(=O)[nH]1 [Pemetrexed, pemetrexed, reference compound] |  |  |  | > 200 |  |  |  |  |  |  |  |
|  |  | 9.7 | 4300 | 29 | 32 | 15 | 0.09 to 29 | 0.5 to 24 | CN(Cc1ccoc1)Cc1nnc(SCCOc2ccccc2)n1C [Compound G, 1-(furan-3-yl)-N-methyl-N-((4-methyl-5-((2-phenoxyethyl)thio)-4H-1,2,4-triazol-3-yl)methyl)methanaminium] |  |  |  | 0.39 |  |  |  |  |  |  |  |
|  |  | 24 | 16000 | 2.6 | 29 | 15 | 0.09 to 29 | 0.5 to 24 | COc1ccc(Cc2c[nH]cc3c(=O)c(OC)ccc2-3)cc1O [Compound M, 4-(3-hydroxy-4-methoxybenzyl)-7-methoxyisoquinolin-8(2H)-one] |  |  |  | 26 |  |  |  |  |  |  |  |
| 400 to 20000 | 2300 | 7 | 16000 | 8.6 | 16 | 8.4 | 0.09 to 29 | 0.5 to 24 | O[C@@H](c1cc(C(F)(F)F)nc2c(C(F)(F)F)cccc12)C1CCCCN1 (stereo partly drawn) [P, (1S)-(2,8-bis(trifluoromethyl)quinolin-4-yl)(piperidin-2-yl)methanol] |  |  |  | 7.6 |  |  |  |  |  |  |  |
|  |  | 8.1 | 2300 | 36 | 16 | 11 |  |  | O=c1[nH]cc(F)c(=O)[nH]1 [Compound 5-FU, 5-fluorouracil, reference compound] |  |  |  | 7.6 |  |  |  |  |  |  |  |

| SMILES | GI50 [1, 9] [nM] | GI50 [1, 10] [nM] | GI50 [3] [µM] | GI50 [4, 12] [nM] | GI50 [5] [µM] | GI50 [6, 13] [µM] | GI50 [7] [µM] | GI50 (human cancer cell lines; [14]) [µM] | GI50 (human cancer cell lines; [15]) [µM] | animal found dead, D2 (in vivo; SCID mice, 100 MKG i.p. daily, single mice) | MTD at 3 weeks (in vivo; SCID, mouse, in vivo, ip, MTD) [mg/kg] | GI50 ([2]; Bon1 cells, read-out: GI50) [µM] | GI50 [2, 11] [µM] | GI50 ([4]; H1048 (SCLC), read-out: GI50) [nM] | GI50 ([6]; CM (insulinoma), read-out: GI50) [µM] | fold lower GI50 than 5-FU (human cancer cell lines; [16]) | fold lower GI50 than pemetrexed (human cancer cell lines; [16]) | animal found dead, D6 ([8]; FVB.129 mice, 50 MKG i.p. daily, single mice) | animal found dead, D5 ([8]; FVB.129 mice, 100 MKG i.p. daily, single mice) | day after treatment at which animals died ([8]; FVB.129, mouse, in vivo, ip, 2 weeks) [days] |
| --- | --- | --- | --- | --- | --- | --- | --- | --- | --- | --- | --- | --- | --- | --- | --- | --- | --- | --- | --- | --- |
| CCc1nc(N)nc(N)c1-c1ccc(N(C)Cc2ccccc2)c([N+](=O)[O-])c1 [Compound S, 5-[4-[benzyl(methyl)amino]-3-nitrophenyl]-6-ethylpyrimidine-2,4-diamine] | 400 to 20000 | 420 | 0.48 | 96 | 8.2 | 0.093 | 0.93 | 0.09 to 29 | 0.5 to 24 | FDN | ≥ 50 | 100 | 100 | 96 | 0.093 | up to 169 fold | up to 416 fold | FDN | FDN | 6 |
